# Values joined by “and” are separate entries in the source; they are usually repeats but may differ in a detail not shown here. Identical values can stand only once.
# Molecular target: Glycogen synthase kinase-3 beta (Homo sapiens, UniProt P49841)
# Assay: TR-FRET Assay
# Procedure: The assay was performed in a white, 384 well, low volume, flat bottom plate (Grenier). […] The kinase activity was quenched with 2 μL of 250 mM EDTA. A 10 μL volume of 40 nM Strepavidin-d2, 2 nM Tb2+-pSer641 antibody in TR-FRET Detection Buffer (Invitrogen) was then added.
# Sequence of Glycogen synthase kinase-3 beta (P49841 whole entry): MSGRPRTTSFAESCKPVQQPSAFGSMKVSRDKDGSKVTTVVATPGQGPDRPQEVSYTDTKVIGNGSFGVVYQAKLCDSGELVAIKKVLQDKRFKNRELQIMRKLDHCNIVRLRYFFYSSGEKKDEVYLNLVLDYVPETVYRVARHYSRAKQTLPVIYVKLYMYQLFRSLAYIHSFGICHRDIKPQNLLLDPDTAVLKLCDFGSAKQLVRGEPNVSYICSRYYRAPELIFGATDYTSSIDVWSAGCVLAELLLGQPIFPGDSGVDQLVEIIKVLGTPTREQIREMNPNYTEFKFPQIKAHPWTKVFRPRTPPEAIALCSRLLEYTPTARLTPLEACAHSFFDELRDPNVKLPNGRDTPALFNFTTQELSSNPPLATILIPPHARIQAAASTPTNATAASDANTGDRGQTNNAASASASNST
row,Compound,IC50
1,"CC(C)(C)CC1N=NC2=C1C1(CN(c3ccccc3)C1)C1=C(CC(C)(C)CC1=O)N2 (stereo not given) [US20250313563, Compound 93429]",1000 to 5000 nM and 134 nM
2,"CC(C)(C)CC1N=NC2=C1[C@@](C)(c1ccccc1)C1=C(CC(C)(C)NC1=O)N2 (stereo not given in full) [US20250313563, Compound 114532]",> 5000 nM
3,"CN1C[C@@]2(C3=C(CC(C)(C)CC3=O)NC3N=NC(CC(C)(C)C)=C32)c2ccccc21 (stereo not given in full) [US20250313563, Compound 125979]",1000 to 5000 nM
4,"CC(C)(C)CC1N=NC2=C1[C@@](C)(c1cccc(N3C=COCC3)c1)C1=C(CC(C)(C)CC1=O)N2 (stereo not given in full) [US20250313563, Compound 126399]",> 5000 nM
5,"CC1(C)CC(=O)C2=C(C1)NC1N=NC(C3CC(F)(F)C3)=C1[C@]21COc2ccccc21 (stereo not given in full) [US20250313563, Compound 127429]",1000 to 5000 nM
6,"CC(C)(C)CC1=C2C(N=N1)NC1=C(C(=O)CC(C)(C)C1)[C@]21CCc2c(F)cccc21 (stereo not given in full) [US20250313563, Compound 791256]",1000 to 5000 nM
7,"CC[C@]1(c2cccc(Cl)c2)C2=C(CC(C)(C)CC2=O)NC2N=NC(Br)=C21 (stereo not given in full) [US20250313563, Compound 801314]",< 100 nM and 100 to 1000 nM
8,"CC(C)(C)CC1N=NC2=C1[C@@]1(CCc3cccc(F)c31)C1=C(CC(C)(C)CC1=O)N2 (stereo not given in full) [US20250313563, Compound 801351]",100 to 1000 nM
9,"CC[C@]1(c2cccc(COC)c2)C2=CN=NC2NC2=C1C(=O)CC(C)(C)C2 (stereo not given in full) [US20250313563, Compound 810360]",100 to 1000 nM
10,"CC[C@]1(c2cccc(C(F)(F)F)c2)C2=C(CC(C)(C)CC2=O)NC2N=NC(Br)=C21 (stereo not given in full) [US20250313563, Compound 810466]",100 to 1000 nM
11,"CC[C@@]1(c2cccc(OC)c2)C2=CN=NC2NC2=C1C(=O)C[C@H](C)C2 (stereo not given in full) [US20250313563, Compound 811559]",100 to 1000 nM
12,"CC1(C)CC(=O)C2=C(C1)NC1N=NC(C3(C(F)(F)F)CC3)=C1[C@@]21CCc2c(F)cccc21 (stereo not given in full) [US20250313563, Compound 816839]",1000 to 5000 nM
13,"CC[C@]1(c2cccc(-c3cnn(C)c3)c2)C2=CN=NC2NC2=C1C(=O)C[C@H](C)C2 (stereo not given in full) [US20250313563, Compound 823720]",100 to 1000 nM
14,"CC[C@]1(c2cccc(S(C)(=O)=O)c2)C2=CN=NC2NC2=C1C(=O)CC(C)(C)C2 (stereo not given in full) [US20250313563, Compound 826718]",< 100 nM and 100 to 1000 nM
15,"CC[C@]1(c2cccc(Br)c2)C2=CN=NC2NC2=C1C(=O)[C@H](F)C(C)(C)C2 (stereo not given in full) [US20250313563, Compound 835314]",100 to 1000 nM
16,"CC[C@@]1(c2cccc(C)c2)C2=C(CC(C)(C)CC2=O)NC2N=NC(C(F)(F)F)=C21 (stereo not given in full) [US20250313563, Compound 883873]",100 to 1000 nM
17,"CC[C@@]1(c2cccc(N3CCCC3)c2)C2=C(CC(C)(C)CC2=O)NC2N=NC(C)=C21 (stereo not given in full) [US20250313563, Compound 883874]",100 to 1000 nM
18,"CCC1(c2cccc(-c3ccncc3)c2)C2=CN=NC2NC2=C1C(=O)CC(C)(C)C2 (stereo not given) [US20250313563, Compound 883984]",< 100 nM
19,"CCC1(c2cccc(N3CCC[C@H]3C)c2)C2=CN=NC2NC2=C1C(=O)CC(C)(C)C2 (stereo not given in full) [US20250313563, Compound 885204]",100 to 1000 nM
20,"CC[C@@]1(c2cccc(OC)c2)C2=C(CC(C)(C)CC2=O)NC2N=NC(C(=O)OC)=C21 (stereo not given in full) [US20250313563, Compound 901480]",100 to 1000 nM
21,"CCC1(c2cccc(C(F)(F)F)c2)C2=C(N=NC2)NC2=C1C(=O)N(C)C2C (stereo not given) [US20250313563, Compound 911957]",100 to 1000 nM
22,"CC[C@]1(c2cccc(-c3ccnn3C)c2)C2=CN=NC2NC2=C1C(=O)CC(C)(C)C2 (stereo not given in full) [US20250313563, Compound 911992]",100 to 1000 nM
23,"CC[C@]1(c2cccc(S(=O)(=O)C3CC3)c2)C2=CN=NC2NC2=C1C(=O)CC(C)(C)C2 (stereo not given in full) [US20250313563, Compound 912171]",< 100 nM and 100 to 1000 nM
24,"CC[C@@]1(c2cccc(C(F)(F)F)c2)C2=CN=NC2NC2=C1C(=O)N(CC(F)(F)F)CC2 (stereo not given in full) [US20250313563, Compound 912206]",100 to 1000 nM
25,"CC[C@@]1(c2cccc(-c3ccnn3C)c2)C2=C(CC(C)(C)CC2=O)NC2N=NC(C)=C21 (stereo not given in full) [US20250313563, Compound 913023]",< 100 nM and 100 to 1000 nM

# Reference: BindingDB's records for patent US20250313563 (The Broad Institute, 2025)
